Laboratory results: US7323485B2, “4-(substituted cycloalkylmethyl) imidazole-2-thiones, 4-(substituted cycloalkenylmethyl) imidazole-2-thiones, 4-(substituted cycloalkylmethyl) imidazol-2-ones and 4-(substituted cycloalkenylmethyl) imidazol-2-ones and related compounds” (Allergan, Inc., priority 2002, dated 2008)

Experiments:
[1] = molecular target: T1, alpha2B adrenergic receptors (Homo sapiens, UniProt P18089); test: Receptor Selection and Amplification Technology (RSAT) assay, alpha2B; format: cell-based; conditions: for EC50: NA = not active at concentrations less than 10 micromolar, read-out: Alpha 2B EC50; for Alpha 2B intrinsic activity: fraction of maximal effect of standard full agonist brimonidine (UK14304)
T1 construct: expressed in transfected cells; host or cells: NIH-3T3
T1 sequence (P18089 1-450): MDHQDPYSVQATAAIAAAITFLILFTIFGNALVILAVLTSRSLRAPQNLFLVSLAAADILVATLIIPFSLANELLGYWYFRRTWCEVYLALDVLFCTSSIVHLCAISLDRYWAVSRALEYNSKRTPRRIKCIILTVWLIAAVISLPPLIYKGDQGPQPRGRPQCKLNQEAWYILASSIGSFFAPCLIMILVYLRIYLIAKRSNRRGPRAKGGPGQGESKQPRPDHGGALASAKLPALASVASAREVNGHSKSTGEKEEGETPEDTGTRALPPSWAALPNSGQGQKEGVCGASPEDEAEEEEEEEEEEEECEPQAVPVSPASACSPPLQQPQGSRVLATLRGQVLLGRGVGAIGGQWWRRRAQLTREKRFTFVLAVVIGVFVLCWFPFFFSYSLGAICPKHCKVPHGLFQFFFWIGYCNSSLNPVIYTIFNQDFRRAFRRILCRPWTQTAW
Source text: (§1) The imidazole-2-thione compounds of the invention are agonists of alpha2 adrenergic receptors, particularly they tend to be specific or selective agonists of alpha2B and/or to a lesser extent alpha2C adrenergic receptors, in preference over alpha2A adrenergic receptors. […] Al., 1995, Pharmacol. Toxicol. 76, pp. 308-311 (incorporated herein by reference) and is also described below. Another reference pertinent to this assay is Conklin et al. (1993) Nature 363:274-6, also incorporated herein by reference.
(§2) Receptor Selection and Amplification Technology (RSAT) Assay
(§3) The RSAT assay measures a receptor-mediated loss of contact inhibition that results in selective proliferation of receptor-containing cells in a mixed population of confluent cells. The increase in cell number is assessed with an appropriate transfected marker gene such as β-galactosidase, the activity of which can be easily measured in a 96-well format. Receptors that activate the G protein, Gq, elicit this response. Alpha2 receptors, which normally couple to Gi, activate the RSAT response when coexpressed with a hybrid Gq protein that has a Gi receptor recognition domain, called Gq/i5.
(§4) NIH-3T3 cells are plated at a density of 2×10^6 cells in 15 cm dishes and maintained in Dulbecco's modified Eagle's medium supplemented with 10% calf serum. One day later, cells are cotransfected by calcium phosphate precipitation with mammalian expression plasmids encoding p-SV-β-galactosidase (5-10 μg), receptor (1-2 μg) and G protein (1-2 μg). 40 μg salmon sperm DNA may also be included in the transfection mixture. Fresh media is added on the following day and 1-2 days later, cells are harvested and frozen in 50 assay aliquots. Cells are thawed and 100 μl added to 100 μl aliquots of various concentrations of drugs in triplicate in 96-well dishes. Incubations continue 72-96 hr at 37 EC. After washing with phosphate-buffered saline, β-galactosidase enzyme activity is determined by adding 200 μl of the chromogenic substrate (consisting of 3.5 mM o-nitrophenyl-β-D-galactopyranoside and 0.5% nonidet P-40 in phosphate buffered saline), incubating overnight at 30 EC and measuring optical density at 420 nm. The absorbance is a measure of enzyme activity, which depends on cell number and reflects a receptor-mediated cell proliferation. The EC50 and maximal effect of each drug at each alpha2 receptor is determined. The efficacy or intrinsic activity is calculated as a ratio of the maximal effect of the drug to the maximal effect of a standard full agonist for each receptor subtype. Brimonidine, also called UK14304, the chemical structure of which is shown below, is used as the standard agonist for the alpha2A, alpha2B and alpha2C receptors.
(§5) The results of the RSAT assay with several exemplary compounds of the invention are disclosed in Table 1 above together with the chemical formulas of these examplary compounds. […] NA stands for “not active” at concentrations less than 10 micromolar. As is known EC50 is the concentration at which half of a given compound's maximal activity is observed.

[2] = molecular target: T2, alpha2C adrenergic receptors (Homo sapiens, UniProt P18825); test: Receptor Selection and Amplification Technology (RSAT) assay, alpha2C; format: cell-based; conditions: for EC50: NA = not active at concentrations less than 10 micromolar, read-out: Alpha 2C EC50; for Alpha 2C intrinsic activity: fraction of maximal effect of standard full agonist brimonidine (UK14304)
T2 construct: expressed in transfected cells; host or cells: NIH-3T3
T2 sequence (P18825 1-462): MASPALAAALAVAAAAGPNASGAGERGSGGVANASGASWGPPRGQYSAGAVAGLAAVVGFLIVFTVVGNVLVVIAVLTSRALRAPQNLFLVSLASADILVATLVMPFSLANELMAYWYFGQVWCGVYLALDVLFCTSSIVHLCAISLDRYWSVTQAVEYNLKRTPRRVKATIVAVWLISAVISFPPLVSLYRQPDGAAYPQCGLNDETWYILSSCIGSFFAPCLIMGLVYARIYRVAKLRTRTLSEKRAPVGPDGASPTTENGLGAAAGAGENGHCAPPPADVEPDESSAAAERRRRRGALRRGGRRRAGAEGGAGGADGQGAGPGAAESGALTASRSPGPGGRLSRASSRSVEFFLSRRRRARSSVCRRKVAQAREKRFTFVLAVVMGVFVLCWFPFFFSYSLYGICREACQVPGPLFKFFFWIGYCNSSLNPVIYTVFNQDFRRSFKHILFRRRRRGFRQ
Source text: as §1, §2, §3, §4, §5

| Structure (SMILES) | EC50 [1] | Alpha 2B intrinsic activity [1] | EC50 [2] | Alpha 2C intrinsic activity [2] |
| --- | --- | --- | --- | --- |
| S=c1[nH]cc(CC2CCC3=C2CCCC3)[nH]1 (stereo not drawn) | 30 nM | 1.06 | 602 nM | 0.55 |
| O=C1C2=C(CCC1Cc1c[nH]c(=S)[nH]1)NCCC2 (stereo not drawn) | 755 nM | 0.98 | 2260 nM | 0.88 |
| S=c1[nH]cc(C2CCc3ccccc3C2)[nH]1 (stereo not drawn) | 34 nM | 1.03 | 423 nM | 0.52 |
| Cc1cccc2c1CC(c1c[nH]c(=S)[nH]1)C2 (stereo not drawn) | 3 nM | 0.99 | 13 nM | 0.62 |
| Cc1ccc2c(c1)CC(c1c[nH]c(=S)[nH]1)C2 (stereo not drawn) | 27 nM | 1.12 | 374 nM | 0.45 |
| S=c1[nH]cc(C2Cc3ccc(Br)cc3C2)[nH]1 (stereo not drawn) | 28 nM | 0.87 | 321 nM | 0.38 |
| S=c1[nH]cc(C2Cc3cccc(Br)c3C2)[nH]1 (stereo not drawn) | 5 nM | 1.07 | 106 nM | 0.87 |
| Cc1ccc(C)c2c1CC(c1c[nH]c(=S)[nH]1)C2 | 7 nM | 1.27 | 92 nM | 0.86 |
| Cc1c(Cl)ccc2c1CC(c1c[nH]c(=S)[nH]1)C2 (stereo not drawn) | 14 nM | 0.91 | 561 nM | 0.45 |
| S=c1[nH]cc(C2Cc3ccc(Cl)c(Cl)c3C2)[nH]1 (stereo not drawn) | 7 nM | 1 | 190 nM | 0.53 |
| S=c1[nH]cc(C2Cc3cccc(I)c3C2)[nH]1 (stereo not drawn) | 7 nM | 0.96 | 101 nM | 0.49 |
| Fc1ccc2c(c1)C(Cc1c[nH]c(=S)[nH]1)CC2 (stereo not drawn) | 34 nM | 1.01 | 42 nM | 0.63 |
| Fc1cc2c(cc1F)C(Cc1c[nH]c(=S)[nH]1)CC2 (stereo not drawn) | 354 nM | 0.363 | 662 nM | 0.38 |
| S=c1[nH]cc(C2Cc3cccc(Cl)c3C2)[nH]1 (stereo not drawn) | < 2 nM | 1.15 | 45 nM | 0.74 |
| S=c1[nH]cc(CC2CCc3c(Br)cccc32)[nH]1 (stereo not drawn) | 87 nM | 0.73 | 168 nM | 0.59 |
| S=c1[nH]cc(CC2CCCc3cccnc32)[nH]1 (stereo not drawn) | 236 nM | 1.07 | 2820 nM | 0.46 |
| Cc1ccc(C2=CCCC2Cc2c[nH]c(=S)[nH]2)cc1 (stereo not drawn) | 2180 nM | 0.47 | > 3000 nM | 0.46 |
| COc1ccc(C2=CCCC2Cc2c[nH]c(=S)[nH]2)cc1 (stereo not drawn) | > 3000 nM | 0.56 | 568 nM | 0.47 |
| N#Cc1ccc(C2=CCCC2Cc2c[nH]c(=S)[nH]2)cc1 (stereo not drawn) | 498 nM | 0.91 | 155 nM | 1.01 |
| O=[N+]([O-])c1cccc(C2=CCCC2Cc2c[nH]c(=S)[nH]2)c1 (stereo not drawn) | > 10000 nM |  | 2510 nM |  |
| Fc1cccc(C2=CCC[C@H]2Cc2c[nH]c(=S)[nH]2)c1 | 191 nM | 0.53 | 916 nM | 0.37 |
| Fc1cc(F)cc(C2=CCC[C@H]2Cc2c[nH]c(=S)[nH]2)c1 | 472 nM | 0.83 | 790 nM | 0.58 |
| Fc1ccc(C2=CCC[C@@H]2Cc2c[nH]c(=S)[nH]2)cc1 | 269 nM | 0.97 | 131 nM | 0.72 |
| Fc1cc(F)cc(C2=CCC[C@@H]2Cc2c[nH]c(=S)[nH]2)c1 | 1600 nM | 0.59 | 569 nM | 0.68 |
| Fc1ccc(C2=CCCC2Cc2c[nH]c(=S)[nH]2)cc1 (stereo not drawn) | 459 nM | 0.68 | 152 nM | 0.77 |
| Fc1ccc(C2=CCCC2Cc2c[nH]c(=S)[nH]2)cc1F (stereo not drawn) | 225 nM | 0.44 | 205 nM | 0.68 |
| S=c1[nH]cc(CC2CCC=C2c2ccc(Cl)s2)[nH]1 (stereo not drawn) | 1100 nM | 0.69 | 2760 nM | 0.75 |
| Fc1ccccc1C1=CCCC1Cc1c[nH]c(=S)[nH]1 (stereo not drawn) |  |  | 994 nM | 0.53 |
| Fc1ccc(C2=CCCC2Cc2c[nH]c(=S)[nH]2)c(F)c1 (stereo not drawn) | 219 nM | 0.42 | 290 nM | 0.62 |
| Fc1ccc(F)c(C2=CCCC2Cc2c[nH]c(=S)[nH]2)c1 (stereo not drawn) |  |  | 430 nM | 0.38 |
